Results taken from patent US20140242151A1, “ADHESIVE SKIN PATCH” (Sekisui Chemical Co., Ltd., priority 2003, published 2014).

conditions: in 2-octyl-1-dodecanol, 2-hexyl-1-decanol, isostearyl alcohol or oleyl alcohol; temperature range of 4 to 50° C.
Description: 50 or 150 parts by weight of tulobuterol was added to each of the following resolvents in such a manner that the total amount of an obtained tulobuterol solution became 1000 parts by weight: 2-octyl-1-dodecanol (manufactured by Cognis Japan Ltd., under the trade name of “EUTANOL G”), 2-hexyl-1-decanol (manufactured by Cognis Japan Ltd., under the trade name of “EUTANOL G16N”), isostearyl alcohol (manufactured by Kokyu Alcohol Kogyo Co., Ltd., under the trade name of “Isostearyl Alcohol EX”), oleyl alcohol (manufactured by Kokyu Alcohol Kogyo Co., Ltd., under the trade name of “Oleyl Alcohol VP”), cetanol (hexadecyl alcohol) (manufactured by NOF Corporation, under the trade name of “NAA-44”), isopropyl myristate (manufactured by Nikko Chemicals Co., Ltd., under the trade name of “IPM-100”), decyl oleate (manufactured by Cognis Japan Ltd., under the trade name of “CETIOL V”), medium chain triglyceride (manufactured by NOF Corporation, under the trade name of “PANACET 800”), polyethylene glycol (manufactured by Maruishi Pharmaceutical Co., Ltd., under the trade name of “MACROGOL 400 (Japanese Pharmacopoeia)”), propylene glycol (manufactured by Maruishi Pharmaceutical Co., Ltd., under the trade name of “Propylene Glycol (Japanese Pharmacopoeia)”), and liquid paraffin (manufactured by Sankei Sangyo K.K., under the trade name of “Liquid Paraffin No. 350”). Each of the thus obtained tulobuterol solutions was kept at 50° C. for 120 minutes, and was then kept at 20° C. for 24 hours, and was further kept at 4° C. for 24 hours.
At this time, the tulobuterol solution was visually observed to see whether crystalline tulobuterol was deposited or not after the completion of each warming of the tulobuterol solution at 50, 20 or 4° C. The results are shown in Table 1 wherein the mark “◯” represents a case where crystalline tulobuterol was not observed, and the mark “X” represents a case where crystalline tulobuterol was observed.
The solubility of each of these drugs in these resolvents was determined in the same manner as in a case where the solubility of tulobuterol in these resolvents was determined.
50 or 150 parts by weight of tyramine (manufactured by Tokyo Chemical Industries Co., Ltd.) was added to each of the above-mentioned resolvents (i.e., 2-octyl-1-dodecanol, isopropyl myristate, polyethylene glycol, and propylene glycol) in such a manner that the total amount of an obtained tyramine solution became 1000 parts by weight. The solubility of tyramine in these resolvents was determined in the same manner as in a case where the solubility of tulobuterol in these resolvents was determined.

Row | Stable dissolution in resolvents of the invention | SMILES
1 | not stably dissolved | N[C@@H](Cc1ccccc1)C(=O)O [phenylalanine]
2 | stably dissolved | CC(C)(C)NCC(O)c1ccccc1Cl (stereo not shown) [tulobuterol]
3 | not stably dissolved | NCCc1ccc(O)cc1 [tyramine]
4 | not stably dissolved | CCOc1ccc(NC(C)=O)cc1 [phenacetin]
5 | not stably dissolved | CCCCOC(=O)[C@@H](N)Cc1ccc(O)c(O)c1 [levodopa butyl ester]

Row | SMILES | Stable dissolution in resolvents of the invention
6 | CNC[C@H](O)c1ccc(O)c(O)c1 [epinephrine] | not stably dissolved

same assay, conditions: resolvent cetanol; solution kept at 50° C.

Row | Dissolution in cetanol | SMILES
7 | completely dissolved | CC(C)(C)NCC(O)c1ccccc1Cl (stereo not shown) [tulobuterol]
